In patent publication US11459318B2, “Pesticidally active pyrrole derivatives” (Syngenta Participations AG, priority 2017, dated 2022):

What was measured:
Format in all cases: in vivo
[1] = system: Diabrotica balteata (Corn root worm); experiment: Diabrotica balteata (Corn root worm), maize sprouts sprayed, L2 larvae mortality; details: 96 h, application rate of 200 ppm, L2 larvae on maize sprouts, assessed 4 days after infestation, read-out: control (mortality)
Protocol: Diabrotica balteata (Corn root worm):
Maize sprouts placed onto an agar layer in 24-well microtiter plates were treated with aqueous test solutions prepared from 10,000 ppm DMSO stock solutions by spraying. After drying, the plates were infested with L2 larvae (6 to 10 per well). The samples were assessed for mortality 4 days after infestation.

[2] = system: Euschistus heros (Neotropical Brown Stink Bug); experiment: Euschistus heros (Neotropical Brown Stink Bug): Feeding/contact activity; details: 120 h, application rate of 200 ppm, N2 nymphs on soybean leaves, assessed 5 days after infestation, read-out: control (mortality)
Protocol: Euschistus heros (Neotropical Brown Stink Bug): Feeding/contact activity Soybean leaves on agar in 24-well microtiter plates were sprayed with aqueous test solutions prepared from 10,000 ppm DMSO stock solutions. After drying the leaves were infested with N2 nymphs. The samples were assessed for mortality 5 days after infestation.

[3] = system: Myzus persicae (Green peach aphid); experiment: Myzus persicae (Green peach aphid): Feeding/Contact activity; details: foliar, 144 h, application rate of 200 ppm, aphid population of mixed ages on sunflower leaf discs, assessed 6 days after infestation, read-out: control (mortality)
Protocol: Myzus persicae (Green peach aphid): Feeding/Contact activity Sunflower leaf discs were placed onto agar in a 24-well microtiter plate and sprayed with aqueous test solutions prepared from 10,000 ppm DMSO stock solutions. After drying, the leaf discs were infested with an aphid population of mixed ages. The samples were assessed for mortality 6 days after infestation.

[4] = system: Plutella xylostella (Diamond back moth); experiment: Plutella xylostella (Diamond back moth): Feeding/contact activity; details: 120 h, application rate of 200 ppm, L2 larvae on artificial diet, assessed 5 days after infestation, read-out: control (mortality)
Protocol: Plutella xylostella (Diamond back moth): Feeding/contact activity
24-well microtiter plates with artificial diet were treated with aqueous test solutions prepared from 10,000 ppm DMSO stock solutions by pipetting. After drying, the plates were infested with L2 larvae (10 to 15 per well). The samples were assessed for mortality 5 days after infestation.

[5] = system: Spodoptera littoralis (Egyptian cotton leaf worm); experiment: Spodoptera littoralis (Egyptian cotton leaf worm): Feeding/contact activity; details: foliar, 72 h, application rate of 200 ppm, L1 larvae on cotton leaf discs, assessed 3 days after infestation, read-out: control (mortality)
Protocol: Spodoptera littoralis (Egyptian cotton leaf worm): Feeding/contact activity Cotton leaf discs were placed onto agar in 24-well microtiter plates and sprayed with aqueous test solutions prepared from 10,000 ppm DMSO stock solutions. After drying the leaf discs were infested with five L1 larvae. The samples were assessed for mortality 3 days after infestation.

[6] = system: Tetranychus urticae (Two-spotted spider mite); experiment: Tetranychus urticae (Two-spotted spider mite): Feeding/contact activity; details: foliar, 192 h, application rate of 200 ppm, mite population of mixed ages (mobile stages) on bean leaf discs, assessed 8 days after infestation, read-out: control (mortality)
Protocol: Tetranychus urticae (Two-spotted spider mite): Feeding/contact activity
Bean leaf discs on agar in 24-well microtiter plates were sprayed with aqueous test solutions prepared from 10,000 ppm DMSO stock solutions. After drying the leaf discs were infested with a mite population of mixed ages. The samples were assessed for mortality on mixed population (mobile stages) 8 days after infestation.

[7] = system: Thrips tabaci (Onion Thrips); experiment: Thrips tabaci (Onion Thrips): Feeding/Contact activity; details: foliar, 144 h, application rate of 200 ppm, thrips population of mixed ages on sunflower leaf discs, assessed 6 days after infestation, read-out: control (mortality)
Protocol: Thrips tabaci (Onion Thrips): Feeding/Contact activity
Sunflower leaf discs were placed on agar in 24-well microtiter plates and sprayed with aqueous test solutions prepared from 10,000 ppm DMSO stock solutions. After drying the leaf discs were infested with a thrips population of mixed ages. The samples were assessed for mortality 6 days after infestation.

Measured: mortality at 200 ppm

CC(C)n1c(C(F)(C(F)(F)F)C(F)(F)F)cc(Br)c1-n1cc(-c2ccc(Cl)c(C(=O)NC3(C#N)CC3)c2)cn1 [Compound 24, 5-[1-[3-bromo-1-isopropyl-5-[1,2,2,2-tetrafluoro-1-(trifluoromethyl)ethyl]pyrrol-2-yl]pyrazol-4-yl]-2-chloro-N-(1-cyanocyclopropyl)benzamide]
≥ 80%: all assays above

Cn1c(C(F)(C(F)(F)F)C(F)(F)C(F)(F)F)cc(Br)c1-n1cc(-c2ccc(Cl)c(C(=O)NC3(C#N)CC3)c2)cn1 (stereo not drawn) [Compound 27, 5-[1-[3-bromo-5-[1,2,2,3,3,3-hexafluoro-1-(trifluoromethyl)propyl]-1-methyl-pyrrol-2-yl]pyrazol-4-yl]-2-chloro-N-(1-cyanocyclopropyl)benzamide]
≥ 80%: all assays above

CN(C(=O)c1cc(-c2cnn(-c3c(Br)cc(C(F)(C(F)(F)F)C(F)(F)F)n3C)c2)ccc1Cl)C1(C#N)CC1 [Compound 21, 5-[1-[3-bromo-1-methyl-5-[1,2,2,2-tetrafluoro-1-(trifluoromethyl)ethyl]pyrrol-2-yl]pyrazol-4-yl]-2-chloro-N-(1-cyanocyclopropyl)-N-methyl-benzamide]
≥ 80%: all assays above

Cn1c(C(F)(C(F)(F)F)C(F)(F)F)cc(I)c1-n1cc(-c2ccc(Cl)c(C(=O)NC3(C#N)CC3)c2)cn1 [Compound 34, 2-chloro-N-(1-cyanocyclopropyl)-5-[1-[3-iodo-1-methyl-5-[1,2,2,2-tetrafluoro-1-(trifluoromethyl)ethyl]pyrrol-2-yl]pyrazol-4-yl]benzamide]
not listed: [3]
≥ 80%: all other assays above

N#CC1(NC(=O)c2cc(-c3cnn(-c4c(Br)cc(C(F)(C(F)(F)F)C(F)(F)F)n4CF)c3)ccc2Cl)CC1 [Compound 12, 5-[1-[3-bromo-1-(fluoromethyl)-5-[1,2,2,2-tetrafluoro-1-(trifluoromethyl)ethyl]pyrrol-2-yl]pyrazol-4-yl]-2-chloro-N-(1-cyanocyclopropyl)benzamide]
≥ 80%: all assays above

Cn1c(C(F)(C(F)(F)F)C(F)(F)F)cc(C#N)c1-n1cc(-c2ccc(Cl)c(C(=O)NC3(C#N)CC3)c2)cn1 [Compound 10, 2-chloro-N-(1-cyanocyclopropyl)-5-[1-[3-cyano-1-methyl-5-[1,2,2,2-tetrafluoro-1-(trifluoromethyl)ethyl]pyrrol-2-yl]pyrazol-4-yl]benzamide]
≥ 80%: all assays above

Cn1c(-n2cc(-c3ccc(Cl)c(C(=O)NC4(C#N)CC4)c3)cn2)ccc1C(F)(C(F)(F)F)C(F)(F)C(F)(F)F (stereo not drawn) [Compound 28, 2-chloro-N-(1-cyanocyclopropyl)-5-[1-[5-[1,2,2,3,3,3-hexafluoro-1-(trifluoromethyl)propyl]-1-methyl-pyrrol-2-yl]pyrazol-4-yl]benzamide]
≥ 80%: all assays above

N#CC1(NC(=O)c2cc(-c3cnn(-c4c(Cl)cc(C(F)(C(F)(F)F)C(F)(F)F)n4CF)c3)ccc2Cl)CC1 [Compound 29, 2-chloro-5-[1-[3-chloro-1-(fluoromethyl)-5-[1,2,2,2-tetrafluoro-1-(trifluoromethyl)ethyl]pyrrol-2-yl]pyrazol-4-yl]-N-(1-cyanocyclopropyl)benzamide]
≥ 80%: all assays above

Cn1c(C(F)(C(F)(F)F)C(F)(F)F)cc(Cl)c1-n1cc(-c2ccc(Cl)c(C(=O)NC3(C#N)CC3)c2)cn1 [Compound 9, 2-chloro-5-[1-[3-chloro-1-methyl-5-[1,2,2,2-tetrafluoro-1-(trifluoromethyl)ethyl]pyrrol-2-yl]pyrazol-4-yl]-N-(1-cyanocyclopropyl)benzamide]
≥ 80%: all assays above

N#CC1(NC(=O)c2cc(-c3cnn(-c4c(Br)cc(C(F)(C(F)(F)F)C(F)(F)F)n4CC(F)(F)F)c3)ccc2Cl)CC1 [Compound 26, 5-[1-[3-bromo-5-[1,2,2,2-tetrafluoro-1-(trifluoromethyl)ethyl]-1-(2,2,2-trifluoroethyl)pyrrol-2-yl]pyrazol-4-yl]-2-chloro-N-(1-cyanocyclopropyl)benzamide]
≥ 80%: all assays above

N#CC1(NC(=O)c2cc(-c3cnn(-c4c(Br)cc(C(F)(C(F)(F)F)C(F)(F)F)n4C4CC4)c3)ccc2Cl)CC1 [Compound 42, 5-[1-[3-bromo-1-cyclopropyl-5-[1,2,2,2-tetrafluoro-1-(trifluoromethyl)ethyl]pyrrol-2-yl]pyrazol-4-yl]-2-chloro-N-(1-cyanocyclopropyl)benzamide]
≥ 80%: all assays above

Cc1cc(C(F)(C(F)(F)F)C(F)(F)F)n(C)c1-n1cc(-c2ccc(Cl)c(C(=O)NC3(C#N)CC3)c2)cn1 [Compound 11, 2-chloro-N-(1-cyanocyclopropyl)-5-[1-[1,3-dimethyl-5-[1,2,2,2-tetrafluoro-1-(trifluoromethyl)ethyl]pyrrol-2-yl]pyrazol-4-yl]benzamide]
not listed: [3]
≥ 80%: all other assays above

Cn1c(SC(F)(F)F)c(Br)c(Br)c1-n1cc(-c2ccc(Cl)c(C(=O)NC3(C#N)CC3)c2)cn1 [Compound 16, 2-chloro-N-(1-cyanocyclopropyl)-5-[1-[3,4-dibromo-1-methyl-5-(trifluoromethylsulfanyl)pyrrol-2-yl]pyrazol-4-yl]benzamide]
not listed: [2] | [3]
≥ 80%: all other assays above
